Source: publication PMC6647401, “Phase I dose-escalation study of F14512, a polyamine-vectorized topoisomerase II inhibitor, in patients with platinum-refractory or resistant ovarian cancer” (Investigational New Drugs, 2018)
Values joined by “and” are separate entries in the source; they are usually repeats but may differ in a detail not shown here. Identical values can stand only once. Like-named read-outs stand apart in the source and are kept apart here.

Legend:
[1] = test system: patients with platinum-refractory or resistant ovarian cancer; format: in vivo
Description: This was an open-label, dose-escalation, multicenter, phase I study (EudraCT Number: 2012–005798-29) conducted in 3 investigational sites in France. The 10 mg/m^2/day dose of F14512 was planned as a starting dose (DL1) for escalation in cohorts of 3 to 6 patients until the MTD was reached. Dose escalation was based on a standard titration design by using increments of 33% except from the first dose escalation, which could proceed with a dose increment of 50% in the absence of grade 3 neutropenia and dose limiting toxicity (DLT) observed at DL1. Dose escalation then proceeded except if criteria of MTD were met at DL1. In that instance, the 5 mg/m^2/day dose was tested. All patients in a DL had to be followed for at least 3 weeks (cycle 1) for DLT evaluation before the first patient of the next dose level started treatment. The final decision to proceed to the next DL was made by the safety committee at the dose-escalation meeting. The MTD was defined as the DL at which 2/3 or 2/6 patients experienced a DLT during the first cycle. The Recommended Dose (RD) was the DL immediately below the MTD. A total of 10 evaluable patients had to be treated at the RD.
F14512 was administered as three-hour daily infusion through a central venous catheter for 3 consecutive days every 3 weeks depending on recovery to normal hematopoiesis or recovery of non-hematological toxicities to grade 1. During the first cycle, G- and GM-CSF use was prohibited, however, there were no such constraints in subsequent cycles.
DLTs were defined as one of the following drug-related AEs occurring during the first cycle: grade 4 neutropenia ≥ 7 days, grade 4 thrombocytopenia, or grade 3 thrombocytopenia requiring transfusion and/or associated with bleeding, grade 3 or 4 neutropenia concomitant with grade ≥ 3 infection or febrile neutropenia, any grade ≥ 3 gastrointestinal toxicity including grade ≥ 3 nausea, vomiting or diarrhea if persistent despite optimal antiemetic or anti-diarrheal treatment, any other drug-related grade ≥ 3 toxicity, any drug-related AE that required a delay of ≥ 2 weeks of the administration of cycle 2.

[2] = test system: patients with platinum-refractory or resistant ovarian cancer; test: Safety: study drug-related adverse events (NCI-CTC v4.0); format: in vivo, human
Description: (§1) Toxicities were graded according to National Cancer Institute - Common Toxicity Criteria (NCI - CTC) for adverse events (AEs) (version 4.0). DLT determination criteria and safety assessments are described in the Online Resource. Response was assessed by using GCIG response criteria incorporating RECIST version 1.1 and CA-125. Plasma PK assessments and statistical methods are described in the Online Resource.
Safety was assessed by physical examination on days 1, 2 and 3 during each cycle. Complete blood cell counts were performed on days 4, 6, 8, 10, 12 and 15 of the first cycle, on day 1 of each subsequent cycle and then on a weekly basis thereafter. Serum chemistry was performed weekly during the first cycle and at the end of each cycle thereafter except serum magnesium and potassium which were measured twice weekly during the first week of each cycle and then, weekly for the following weeks. ECGs were performed at baseline and on day 1 of each cycle.

[3] = test system: platinum-refractory or resistant ovarian cancer; test: Efficacy by GCIG response criteria (RECIST 1.1 and CA-125); format: in vivo, human
Description: as §1

[4] = Plasma pharmacokinetics (LC/MS/MS); format: in vivo, human; settings: for AUCinf/dose level of F14512: n = 11, mean [range], three-hour infusion
Description: Plasma PK was studied after the administrations on days 1 and 3 of cycle 1 (pre-dose, T0+1.5 h, T0+3 h, T0+3.5 h, T0+4 h, T0+6 h T0+12 h, T0+24 h) and day 1 of cycle 2 (pre-dose, T0+3.5 h, T0+8 h, T0+24 h). F14512, its metabolite F16490 and the metabolite BG (an additional metabolite peak found in human during exploratory metabolite identification analysis and not retrieved in animal species) were assayed in plasma using liquid chromatography coupled with tandem mass spectrometry (LC/MS/MS).
Continuous data were summarized with frequency, median, range, mean, standard deviation and standard error if relevant. Categorical data were presented as frequencies and percentages. 95% confidence intervals (CI) were calculated following the exact method. PK parameters were compared for reproducibility between day 1 and day 3 of cycle 1 for F14512 and its metabolite F16490 using a pairwise t-test or a Wilcoxon test according to the normality of their distribution. Dose-proportionality of PK parameters for F14512 and its metabolite F16490 was investigated by graphical display only. A p value <0.05 was considered statistically significant. Data were analyzed using the SAS® system software version 9.3 for Windows® (Statistical Analysis System, Cary, NC, USA).

human cancer cell lines = test system: human cancer cell lines; parameters: method as in PMID 19047165; settings: in vitro; cited from earlier work
experimental models = test system: experimental models; parameters: method as in PMID 19777159; settings: cited from earlier work
SK-OV3 cancer cells = test system: SK-OV3 cancer cells; parameters: method as in PMID 26404751; settings: cited from earlier work
[5] = test system: PTS(+) A2780R cisplatin-resistant cell line; parameters: method as in PMID 26404751; settings: preliminary studies; cited from earlier work
[6] = test system: relapsed or refractory acute myeloid leukemia (AML); parameters: method as in earlier work; settings: single agent, AML patients at first relapse; cited from earlier work
[7] = test system: platinum-resistant ovarian cancer (PROC); settings: cited from earlier work
[8] = Overall n = 11 (both dose levels), worse grade by patient

SMILES: COc1cc([C@@H]2c3cc4c(cc3[C@@H](NC(=O)CNCCCNCCCCNCCCN)[C@H]3COC(=O)[C@H]23)OCO4)cc(OC)c1O [F14512]
- Number of DLTs reported ([1]; 5 mg/m^2/day, in 2/6 treated patients): 2 DLTs
- Number of DLTs reported ([1]; 10 mg/m^2/day, in 3/4 evaluable patients): 6 DLTs
- Permanent treatment discontinuation because of study drug-related toxicity ([1]; in vivo): 5 patients
- Maximum tolerated dose (MTD) ([1]; three-hour daily infusion, 3 consecutive days every 3 weeks, both dose levels defined as MTD): 5 mg/m^2/day and 10 mg/m^2/day
- Study drug-related AE: Confusional state, Overall grades ([2]; 5 mg/m^2/day, n = 6, worse grade by patient): 1 (16.7) N (%)
- Grade 4 neutropenia, cycles affected / cycles administered ([2]; DL 5 mg/m^2/day): 14/16
- Neutropenic infection ([2]; DL 5 mg/m^2/day): 1 patient
- Grade 4 neutropenia, cycles affected / cycles administered ([2]; DL 10 mg/m^2/day): 12/13
- Study drug-related AE: Alopecia, Overall grades [2, 8]: 2 (18.2) N (%)
- Study drug-related AE: Any related TESS, Grade 3 [2, 8]: 6 (54.5) N (%)
- Study drug-related AE: Any related TESS, Grade 4 [2, 8]: 1 (9.1) N (%)
- Study drug-related AE: Any related TESS, Overall grades [2, 8]: 11 (100.0) N (%)
- Study drug-related AE: Asthenia, Grade 3 [2, 8]: 2 (18.2) N (%)
- Study drug-related AE: Asthenia, Overall grades [2, 8]: 9 (81.8) N (%)
- Study drug-related AE: Blood and lymphatic system disorders, Grade 3 [2, 8]: 4 (36.4) N (%)
- Study drug-related AE: Blood and lymphatic system disorders, Grade 4 [2, 8]: 1 (9.1) N (%)
- Study drug-related AE: Blood and lymphatic system disorders, Overall grades [2, 8]: 5 (45.5) N (%)
- Study drug-related AE: Confusional state, Overall grades [2, 8]: 1 (9.1) N (%)
- Study drug-related AE: Constipation, Overall grades [2, 8]: 2 (18.2) N (%)
- Study drug-related AE: Diarrhea, Overall grades [2, 8]: 2 (18.2) N (%)
- Study drug-related AE: Dysgeusia, Overall grades [2, 8]: 1 (9.1) N (%)
- Study drug-related AE: Dyspepsia, Overall grades [2, 8]: 1 (9.1) N (%)
- Study drug-related AE: Febrile neutropenia, Grade 3 [2, 8]: 4 (36.4) N (%)
- Study drug-related AE: Febrile neutropenia, Overall grades [2, 8]: 4 (36.4) N (%)
- Study drug-related AE: Gastrointestinal disorders, Grade 3 [2, 8]: 2 (18.2) N (%)
- Study drug-related AE: Gastrointestinal disorders, Overall grades [2, 8]: 6 (54.5) N (%)
- Study drug-related AE: General disorders and administration site conditions, Grade 3 [2, 8]: 2 (18.2) N (%)
- Study drug-related AE: General disorders and administration site conditions, Overall grades [2, 8]: 9 (81.8) N (%)
- Study drug-related AE: Gingivitis, Overall grades [2, 8]: 1 (9.1) N (%)
- Study drug-related AE: Infections and infestations, Overall grades [2, 8]: 1 (9.1) N (%)
- Study drug-related AE: Muscle spasms, Overall grades [2, 8]: 2 (18.2) N (%)
- Study drug-related AE: Musculoskeletal and connective tissue disorders, Overall grades [2, 8]: 2 (18.2) N (%)
- Study drug-related AE: Myalgia, Overall grades [2, 8]: 1 (9.1) N (%)
- Study drug-related AE: Nausea, Grade 3 [2, 8]: 2 (18.2) N (%)
- Study drug-related AE: Nausea, Overall grades [2, 8]: 6 (54.5) N (%)
- Study drug-related AE: Nervous system disorders, Overall grades [2, 8]: 1 (9.1) N (%)
- Study drug-related AE: Neutropenia, Overall grades [2, 8]: 1 (9.1) N (%)
- Study drug-related AE: Neutropenic infection, Overall grades [2, 8]: 1 (9.1) N (%)
- Study drug-related AE: Night sweats, Overall grades [2, 8]: 1 (9.1) N (%)
- Study drug-related AE: Onycholysis, Overall grades [2, 8]: 1 (9.1) N (%)
- Study drug-related AE: Psychiatric disorders, Overall grades [2, 8]: 1 (9.1) N (%)
- Study drug-related AE: Pyrexia, Overall grades [2, 8]: 1 (9.1) N (%)
- Study drug-related deaths ([2]; all 11 patients): no study drug-related deaths
- Vomiting ([2]; all 11 patients (36%)): 4 patients
- Metabolism and nutrition disorder with decreased appetite ([2]; all 11 patients (46%)): 5 patients
- Nausea ([2]; all 11 patients (55%)): 6 patients
- Grade 4 neutropenia, share of treated patients ([2]; all 11 patients, both dose levels): 90.9%
- Study drug-related SAEs per dose level ([2]; at each DL (10 and 5 mg/m^2/day)): 3 patients
- Grade 4 neutropenia, cycles affected / cycles administered ([2]; both dose levels): 26/29
- Gastrointestinal disorders ([2]; in vivo): 6 patients
- General disorders (mainly asthenia) ([2]; in vivo): 9 patients
- Grade 3 febrile neutropenia ([2]; in vivo): 4 patients
- Grade 4 neutropenia reported as serious drug-related AE ([2]; in vivo): 1 patient
- Grade 4 neutropenia, share of cycles administered ([2]; in vivo): 89.7%
- Study drug-related AE: Skin and subcutaneous tissue disorders, Overall grades ([2]; in vivo): 4 (36.4) N (%)
- Study drug-related AE: Stomatitis, Overall grades ([2]; in vivo): 1 (9.1) N (%)
- Study drug-related AE: Vomiting, Overall grades ([2]; in vivo): 4 (36.4) N (%)
- Study drug-related serious AEs (SAEs) ([2]; in vivo): 6 patients
- Objective response ([3]; 5 patients evaluable for efficacy, GCIG criteria): no objective response
- Stable disease (SD) as best overall response ([3]; of 5 evaluable patients (40%), both received 9 cycles, 1 at each DL): 2 patients
- Dose dependent PK parameters versus dose level ([4]; 5 versus 10 mg/m^2/day, no statistical analysis): increased with DL
- Cltot ([4]; D1 of cycle 1, n = 11, mean [range]): 13.2 [6.17–22.4] L/h
- AUCinf/dose level of F14512 ([4]; D1 of cycle 1, plasma): 152 [67.7–308]
- Cltot ([4]; D3 of cycle 1, n = 11, mean [range]): 12.9 [5.92–23.1] L/h
- AUCinf/dose level of F14512 ([4]; D3 of cycle 1, plasma): 156 [65.9–270]
- Difference of PK parameters between Day 1 and Day 3 ([4]; cycle 1, pairwise t-test or Wilcoxon test): not statistically significant
- Cell lines with superior anti-proliferative activity (human cancer cell lines): 21/29
- Tumor response in experimental models (experimental models; after intravenous or oral administration): complete tumor regression
- Experimental models with antitumor efficacy (experimental models; in vivo): 13/19
- Response rate in experimental models (experimental models; in vivo): 68%
- Increased sensitivity to cytotoxicity compared to etoposide (SK-OV3 cancer cells): ten-fold
- Antitumor activity in ovarian tumor models [5]: confirmed the antitumor activity
- Complete remissions [6]: 36%

SMILES: CC(=O)O[C@H]1C(=O)[C@@]2(C)[C@H]([C@H](OC(=O)c3ccccc3)[C@]3(O)C[C@H](OC(=O)[C@H](O)[C@@H](NC(=O)c4ccccc4)c4ccccc4)C(C)=C1C3(C)C)[C@]1(OC(C)=O)CO[C@@H]1C[C@@H]2O [paclitaxel]
- Progression free survival [7]: 2–6 months
- Response rates [7]: 0%–30%
